Counter-ions that a name gives are not always drawn. Like-named read-outs stand apart in the source and are kept apart here.
Experiments:
[1] = biological target: N-terminal GST tagged recombinant human RET cytoplasmic domain (aa 658-end), wild type RET kinase (Homo sapiens (Human), UniProt P07949); experiment: RET Enzyme Assay (HTRF KinEASE-TK), wild type RET; assay type: biochemical
[2] = biological target: Kif5b-RET fusion protein in HEK-293 cells (Homo sapiens, UniProt P07949); experiment: cell-based; conditions: read-out: KIF5B-RET pTYR1062 Cell IC50
Kif5b-RET fusion protein in HEK-293 cells, sequence (P07949 29-1114 limits assumed): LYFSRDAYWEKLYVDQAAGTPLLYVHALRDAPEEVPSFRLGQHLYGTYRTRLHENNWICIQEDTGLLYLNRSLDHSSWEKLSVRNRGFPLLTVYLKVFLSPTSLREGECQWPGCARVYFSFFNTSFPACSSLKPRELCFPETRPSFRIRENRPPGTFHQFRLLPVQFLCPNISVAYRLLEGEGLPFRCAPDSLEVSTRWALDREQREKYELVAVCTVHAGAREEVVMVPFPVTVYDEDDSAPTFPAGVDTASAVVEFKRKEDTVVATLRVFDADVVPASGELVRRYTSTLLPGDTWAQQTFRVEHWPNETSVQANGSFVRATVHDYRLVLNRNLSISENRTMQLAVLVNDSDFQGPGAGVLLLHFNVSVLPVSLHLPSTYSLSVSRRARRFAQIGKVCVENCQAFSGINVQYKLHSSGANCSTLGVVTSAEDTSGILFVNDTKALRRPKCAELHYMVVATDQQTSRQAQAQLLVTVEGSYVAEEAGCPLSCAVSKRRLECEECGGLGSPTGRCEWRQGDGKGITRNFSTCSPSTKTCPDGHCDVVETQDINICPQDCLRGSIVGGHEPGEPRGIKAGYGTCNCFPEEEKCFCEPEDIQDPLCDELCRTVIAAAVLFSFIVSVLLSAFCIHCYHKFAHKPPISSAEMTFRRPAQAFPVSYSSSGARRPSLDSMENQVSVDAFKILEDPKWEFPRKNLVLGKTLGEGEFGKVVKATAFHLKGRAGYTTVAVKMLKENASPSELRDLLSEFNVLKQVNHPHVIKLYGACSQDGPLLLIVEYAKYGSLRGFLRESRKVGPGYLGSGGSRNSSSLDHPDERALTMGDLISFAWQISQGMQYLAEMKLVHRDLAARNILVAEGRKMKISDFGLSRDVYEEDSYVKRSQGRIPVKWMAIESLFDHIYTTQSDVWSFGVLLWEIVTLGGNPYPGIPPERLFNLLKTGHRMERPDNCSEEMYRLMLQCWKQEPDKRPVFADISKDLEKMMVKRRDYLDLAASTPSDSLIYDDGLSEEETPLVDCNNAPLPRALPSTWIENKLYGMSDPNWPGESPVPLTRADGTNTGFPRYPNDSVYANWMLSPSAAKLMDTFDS
Description: The cellular potency of a compound inhibiting RET kinase was determined in HEK-293 cells expressing a Kif5b-RET fusion protein. Briefly, HEK-293 cells expressing a Kif5b-RET fusion protein were plated at 50K cells/well in 96 well poly-D-Lysine coated plates the day prior to the assay. The cells were incubated for 1 hour with test compound in DMEM (Dulbecco's Modified Eagle Medium) at a final DMSO concentration of 0.5%. […] After 1 hour the media was removed, the cells were fixed with 3.8% formaldehyde for 20 min, washed with PBS, and permeabilized for 10 min with 100% methanol. […] All antibodies were diluted in LI-COR Block containing 0.05% Tween. The plates were washed with PBS-0.05% Tween20, 100 μL PBS was added to each well, and the plates were read on a LI-COR Aerius fluorescent plate reader. The phospho-RET signal was normalized to the GAPDH signal. […] The IC50 value is the point where the curve crosses 50 POC.

[3] = biological target: human KDR protein in HEK-293 cells (Homo sapiens (Human), UniProt P35968); experiment: KDR Cell Assay (phospho-KDR in HEK-293 cells expressing inducible KDR); assay type: cell-based; conditions: pKDR Cell HEK 10% FBS IC50, HEK-293 cells expressing inducible KDR, VEGF stimulated
human KDR protein in HEK-293 cells, sequence (P35968 20-1356): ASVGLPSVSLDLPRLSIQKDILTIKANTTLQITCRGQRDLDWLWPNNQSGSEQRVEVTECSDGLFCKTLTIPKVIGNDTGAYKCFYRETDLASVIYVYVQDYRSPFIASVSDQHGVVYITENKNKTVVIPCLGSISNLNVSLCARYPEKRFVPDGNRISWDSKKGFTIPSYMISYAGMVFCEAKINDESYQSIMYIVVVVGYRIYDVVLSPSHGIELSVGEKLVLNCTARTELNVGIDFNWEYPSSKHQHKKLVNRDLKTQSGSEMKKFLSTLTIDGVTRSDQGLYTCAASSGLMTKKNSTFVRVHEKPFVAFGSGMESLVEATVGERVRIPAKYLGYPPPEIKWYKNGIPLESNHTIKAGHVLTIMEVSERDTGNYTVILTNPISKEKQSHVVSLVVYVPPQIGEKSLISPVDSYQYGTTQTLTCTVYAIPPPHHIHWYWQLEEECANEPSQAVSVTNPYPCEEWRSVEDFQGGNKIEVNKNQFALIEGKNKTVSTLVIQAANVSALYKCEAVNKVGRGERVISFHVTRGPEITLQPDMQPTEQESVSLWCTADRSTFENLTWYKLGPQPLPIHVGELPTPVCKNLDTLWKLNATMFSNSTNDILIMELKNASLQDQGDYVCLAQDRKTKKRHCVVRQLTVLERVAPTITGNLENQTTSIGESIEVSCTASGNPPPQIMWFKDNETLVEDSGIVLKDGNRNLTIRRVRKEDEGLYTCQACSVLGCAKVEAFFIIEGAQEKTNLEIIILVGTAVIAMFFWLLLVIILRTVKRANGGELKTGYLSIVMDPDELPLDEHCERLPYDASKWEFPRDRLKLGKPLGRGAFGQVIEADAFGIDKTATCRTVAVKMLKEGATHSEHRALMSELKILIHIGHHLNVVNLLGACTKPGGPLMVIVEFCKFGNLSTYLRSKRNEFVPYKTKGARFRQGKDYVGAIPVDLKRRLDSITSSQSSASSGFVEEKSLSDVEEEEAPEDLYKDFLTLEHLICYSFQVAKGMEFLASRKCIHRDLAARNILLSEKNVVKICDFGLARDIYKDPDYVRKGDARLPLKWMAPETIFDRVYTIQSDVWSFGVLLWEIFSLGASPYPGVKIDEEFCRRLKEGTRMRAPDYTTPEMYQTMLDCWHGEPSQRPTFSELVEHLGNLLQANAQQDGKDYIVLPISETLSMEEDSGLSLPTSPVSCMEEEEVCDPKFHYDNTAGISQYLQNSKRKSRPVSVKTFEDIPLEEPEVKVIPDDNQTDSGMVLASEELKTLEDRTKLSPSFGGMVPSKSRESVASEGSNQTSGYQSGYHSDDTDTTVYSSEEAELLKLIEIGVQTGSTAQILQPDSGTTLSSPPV
Procedure, shortened: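 HEK-293 cells with inducible human KDR were treated with compound for 1 h in DMEM (0.25% DMSO final), then lysed. Phospho-KDR was quantified by Meso Scale immunoassay, expressed as percent of control, and IC50 taken where a 4-parameter logistic fit crossed 50 POC.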

[4] = HEK-293 cells expressing Kif5b-RET
[5] = HEK-293 cells expressing Kif5b-RET, phospho-RET(Tyr1062)

N-terminal GST tagged recombinant human RET cytoplasmic domain (aa 658-end), wild type RET kinase, sequence (P07949 658-1114): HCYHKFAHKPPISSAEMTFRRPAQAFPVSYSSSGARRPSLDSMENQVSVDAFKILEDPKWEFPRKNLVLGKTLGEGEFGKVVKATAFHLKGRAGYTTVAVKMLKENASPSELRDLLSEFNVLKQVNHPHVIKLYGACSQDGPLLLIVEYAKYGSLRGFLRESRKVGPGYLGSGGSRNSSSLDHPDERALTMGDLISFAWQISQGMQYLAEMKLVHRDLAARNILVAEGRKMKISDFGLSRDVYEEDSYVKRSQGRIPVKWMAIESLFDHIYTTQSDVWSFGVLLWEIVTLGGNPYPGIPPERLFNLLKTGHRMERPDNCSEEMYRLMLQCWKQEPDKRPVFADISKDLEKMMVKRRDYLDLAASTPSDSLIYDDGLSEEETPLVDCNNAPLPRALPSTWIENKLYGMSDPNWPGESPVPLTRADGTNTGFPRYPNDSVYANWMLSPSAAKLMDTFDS

Structure (SMILES)	IC50 ([1]; wild type RET, 1 mM ATP)	other results
COc1ccc(CN2CCN(c3ccc(-c4cc(-c5cnn(CC(C)CO)c5)cn5ncc(C#N)c45)cn3)CC2)cn1 (stereo in doubt) [Example 707, (R)-6-(1-(3-hydroxy-2-methylpropyl)-1H-pyrazol-4-yl)-4-(6-(4-((6-methoxypyridin-3-yl)methyl)piperazin-1-yl)pyridin-3-yl)pyrazolo[1,5-a]pyridine-3-carbonitrile]	20.1 nM	IC50 [2, 4]: 6.5 nM
COc1ccc(CN2CCN(c3ccc(-c4cc(-c5cnn(CC(C)CO)c5)cn5ncc(C#N)c45)cn3)CC2)cn1 (stereo in doubt) [Example 708, (S)-6-(1-(3-hydroxy-2-methylpropyl)-1H-pyrazol-4-yl)-4-(6-(4-((6-methoxypyridin-3-yl)methyl)piperazin-1-yl)pyridin-3-yl)pyrazolo[1,5-a]pyridine-3-carbonitrile]	19.4 nM	IC50 [2, 4]: 7 nM
CN(C)CCC(=O)N1CCN(c2ccc(-c3cc(-c4cnn(C)c4)cn4ncc(C#N)c34)cn2)CC1 [Example 33, 4-(6-(4-(3-(dimethylamino)propanoyl)piperazin-1-yl)pyridin-3-yl)-6-(1-methyl-1H-pyrazol-4-yl)pyrazolo[1,5-a]pyridine-3-carbonitrile bis(2,2,2-trifluoroacetate)]	42.9 nM	IC50 [2]: 310 nM
CN(C)CCCC(=O)N1CCN(c2ccc(-c3cc(-c4cnn(C)c4)cn4ncc(C#N)c34)cn2)CC1 [Example 52, 4-(6-(4-(4-(dimethylamino)butanoyl)piperazin-1-yl)pyridin-3-yl)-6-(1-methyl-1H-pyrazol-4-yl)pyrazolo[1,5-a]pyridine-3-carbonitrile bis(2,2,2-trifluoroacetate)]	–	IC50 [1]: 17.7 nM; IC50 [2, 5]: 340 nM
CC[C@@H](CO)NC(=O)N1CCN(c2ccc(-c3cc(-c4cnn(C)c4)cn4ncc(C#N)c34)cn2)CC1 [Example 122, (S)-4-(5-(3-cyano-6-(1-methyl-1H-pyrazol-4-yl)pyrazolo[1,5-a]pyridin-4-yl)pyridin-2-yl)-N-(1-hydroxybutan-2-yl)piperazine-1-carboxamide]	11.3 nM	IC50 [2, 5]: 267 nM
CC(O)CN(C)C(=O)C1CCN(c2ccc(-c3cc(-c4cnn(C)c4)cn4ncc(C#N)c34)cn2)CC1 (stereo not shown) [Example 245, 1-(5-(3-cyano-6-(1-methyl-1H-pyrazol-4-yl)pyrazolo[1,5-a]pyridin-4-yl)pyridin-2-yl)-N-(2-hydroxypropyl)-N-methylpiperidine-4-carboxamide]	30.2 nM	IC50 [2, 5]: 191 nM
Cc1cc(-c2cc(-c3cnn(C)c3)cn3ncc(C#N)c23)cnc1N1CCN(C(=O)CC(C)(C)O)CC1 [Example 277, 4-(6-(4-(3-hydroxy-3-methylbutanoyl)piperazin-1-yl)-5-methylpyridin-3-yl)-6-(1-methyl-1H-pyrazol-4-yl)pyrazolo[1,5-a]pyridine-3-carbonitrile]	300 nM	–
Cn1cc(-c2cc(-c3ccc(N4CCNCC4)nc3)c3ccnn3c2)cn1 [Example 312, 6-(1-methyl-1H-pyrazol-4-yl)-4-(6-(piperazin-1-yl)pyridin-3-yl)pyrazolo[1,5-a]pyridine dihydrochloride]	–	IC50 [1]: 607 nM
CCc1cnn2cc(-c3cnn(C)c3)cc(-c3ccc(N4CCN(C(=O)[C@H](O)c5ccccc5)CC4)nc3)c12 [Example 658, (R)-1-(4-(5-(3-ethyl-6-(1-methyl-1H-pyrazol-4-yl)pyrazolo[1,5-a]pyridin-4-yl)pyridin-2-yl)piperazin-1-yl)-2-hydroxy-2-phenylethanone]	–	IC50 [3]: 1840 nM
COc1ncc(C(=O)N2C3CC2CN(c2ccc(-c4cc(-c5cnn(C)c5)cn5ncc(C#N)c45)cn2)C3)cc1F [Example 688, 4-(6-(6-(5-fluoro-6-methoxynicotinoyl)-3,6-diazabicyclo[3.1.1]heptheptan-3-yl)pyridin-3-yl)-6-(1-methyl-1H-pyrazol-4-yl)pyrazolo[1,5-a]pyridine-3-carbonitrile]	–	IC50 [3]: 50.9 nM
Cn1cc(-c2cc(-c3ccc(N4CC5CC(C4)N5Cc4ccccn4)nc3)c3c(C#N)cnn3c2)cn1 [Example 693, 6-(1-methyl-1H-pyrazol-4-yl)-4-(6-(6-(pyridin-2-ylmethyl)-3,6-diazabicyclo[3.1.1]heptan-3-yl)pyridin-3-yl)pyrazolo[1,5-a]pyridine-3-carbonitrile]	–	IC50 [3]: 1020 nM
COc1ccc(CN2CCN(c3ccc(-c4cc(-c5cnn(C(F)F)c5)cn5ncc(C#N)c45)cn3)CC2)cn1 [Example 696, 6-(1-(difluoromethyl)-1H-pyrazol-4-yl)-4-(6-(4-((6-methoxypyridin-3-yl)methyl)piperazin-1-yl)pyridin-3-yl)pyrazolo[1,5-a]pyridine-3-carbonitrile]	–	IC50 [2, 4]: 16.1 nM

Continued, in another order:

IC50 ([1]; wild type RET, 1 mM ATP)	Structure (SMILES)	other results
35.8 nM	Cn1cc(-c2cc(-c3ccc(N4CCN(C(=O)OC(C)(C)C)CC4)nc3)c3c(C#N)cnn3c2)cn1 [Example 1, tert-butyl 4-(5-(3-cyano-6-(1-methyl-1H-pyrazol-4-yl)pyrazolo[1,5-a]pyridin-4-yl)pyridin-2-yl)piperazine-1-carboxylate]	IC50 [2, 5]: 47.5 nM
11.9 nM	Cn1cc(-c2cc(-c3ccc(N4CCN(C(=O)CCS(C)(=O)=O)CC4)nc3)c3c(C#N)cnn3c2)cn1 [Example 3, 6-(1-methyl-1H-pyrazol-4-yl)-4-(6-(4-(3-(methylsulfonyl)propanoyl)piperazin-1-yl)pyridin-3-yl)pyrazolo[1,5-a]pyridine-3-carbonitrile]	IC50 [2, 5]: 119 nM
13.6 nM	C[C@H](O)C(=O)NC1CCN(c2ccc(-c3cc(-c4cnn(C)c4)cn4ncc(C#N)c34)cn2)CC1 [Example 180, (S)-N-(1-(5-(3-cyano-6-(1-methyl-1H-pyrazol-4-yl)pyrazolo[1,5-a]pyridin-4-yl)pyridin-2-yl)piperidin-4-yl)-2-hydroxypropanamide]	IC50 [2, 5]: 135 nM
104 nM	CC(C)C(=O)N[C@H]1CCCN(c2ccc(-c3cc(-c4cnn(C)c4)cn4ncc(C#N)c34)cn2)C1 [Example 225, (S)—N-(1-(5-(3-cyano-6-(1-methyl-1H-pyrazol-4-yl)pyrazolo[1,5-a]pyridin-4-yl)pyridin-2-yl)piperidin-3-yl)isobutyramide]	IC50 [2, 5]: 462 nM
334 nM	CC(C)NC(=O)[C@@H]1CCCN(c2ccc(-c3cc(-c4cnn(C)c4)cn4ncc(C#N)c34)cn2)C1 [Example 229, (R)-1-(5-(3-cyano-6-(1-methyl-1H-pyrazol-4-yl)pyrazolo[1,5-a]pyridin-4-yl)pyridin-2-yl)-N-isopropylpiperidine-3-carboxamide]	–
242 nM	CC(C)NC(=O)[C@H]1CCCN(c2ccc(-c3cc(-c4cnn(C)c4)cn4ncc(C#N)c34)cn2)C1 [Example 230, (S)-1-(5-(3-cyano-6-(1-methyl-1H-pyrazol-4-yl)pyrazolo[1,5-a]pyridin-4-yl)pyridin-2-yl)-N-isopropylpiperidine-3-carboxamide]	–
1500 nM	Cc1cc(-c2cc(-c3cnn(C)c3)cn3ncc(C#N)c23)cnc1N1CCN(C(=O)OC(C)(C)C)CC1 [Example 275, tert-Butyl 4-(5-(3-cyano-6-(1-methyl-1H-pyrazol-4-yl)pyrazolo[1,5-a]pyridin-4-yl)-3-methylpyridin-2-yl)piperazine-1-carboxylate]	–
395 nM	Cc1cc(-c2cc(-c3cnn(C)c3)cn3ncc(C#N)c23)cnc1N1CCNCC1 [Example 276, 6-(1-methyl-1H-pyrazol-4-yl)-4-(5-methyl-6-(piperazin-1-yl)pyridin-3-yl)pyrazolo[1,5-a]pyridine-3-carbonitrile dihydrochloride]	–
318 nM	Cc1cc(-c2cc(-c3cnn(C)c3)cn3ncc(C#N)c23)cnc1N1CCN(C(=O)CC(C)(C)C)CC1 [Example 279, 4-(6-(4-(3,3-dimethylbutanoyl)piperazin-1-yl)-5-methylpyridin-3-yl)-6-(1-methyl-1H-pyrazol-4-yl)pyrazolo[1,5-a]pyridine-3-carbonitrile]	–
656 nM	Cn1cc(-c2cc(-c3ccc(N4CCN(C(=O)OC(C)(C)C)CC4)nc3)c3c(Br)cnn3c2)cn1 [Example 649, tert-butyl 4-(5-(3-bromo-6-(1-methyl-1H-pyrazol-4-yl)pyrazolo[1,5-a]pyridin-4-yl)pyridin-2-yl)piperazine-1-carboxylate]	–
345 nM	Cc1cnn2cc(-c3cnn(C)c3)cc(-c3ccc(N4CCN(C(=O)OC(C)(C)C)CC4)nc3)c12 [Example 650, tert-butyl 4-(5-(3-methyl-6-(1-methyl-1H-pyrazol-4-yl)pyrazolo[1,5-a]pyridin-4-yl)pyridin-2-yl)piperazine-1-carboxylate]	–
208 nM	Cc1cnn2cc(-c3cnn(C)c3)cc(-c3ccc(N4CCNCC4)nc3)c12 [Example 651, 3-methyl-6-(1-methyl-1H-pyrazol-4-yl)-4-(6-(piperazin-1-yl)pyridin-3-yl)pyrazolo[1,5-a]pyridine]	–
